Laboratory results: paper PMC10533412, “Phosphoantigens glue butyrophilin 3A1 and 2A1 to activate Vγ9Vδ2 T cells” (Nature, 2023)

Columns and labels:
Vγ9Vδ2 T cells = settings: cited from earlier work
MIA PaCa-2 cells = test: AFM-SCFS binding force between a Vγ9Vδ2 T cell and a MIA PaCa-2 cell; type: cell-based, human; parameters: binding force, Mean, Fig. 6b / binding force, Median, Fig. 6b: unit not given here; settings: second panel (Ctrl, ZOL, HMBPP-15, HMBPP-15+ZOL)
Protocol: The AFM-SCFS analysis procedure was performed using the JPK CellHesion unit as previously described, and closely followed our previously reported protocol for APCs[4]. […] The glass disks were quickly transferred to an AFM adapter with immediate addition of 1 ml of fresh medium (DMEM: 10% FBS and 1% penicillin–streptomycin). […] The raw data were normalized to the background readings. Blank readings for each set of affinity measurements (Vγ9Vδ2 T cells touching the glass surface) were collected immediately before each assay to perform background subtraction. All data were analysed using the JPK image processing software. […] The following steps were the same as described above.

[1] = system: BTN2A−/− MIA PaCa-2 (BTN2A1/BTN2A2 KO) cells; test: TNF secretion by Vγ9Vδ2 T cells co-cultured with zoledronate-treated BTN2A−/− MIA PaCa-2 cells expressing BTN2A1 variants; type: cell-based, human; settings: n=6
Protocol: (§1) BTN2A^−/− MIA PaCa-2 (BTN2A1/BTN2A2 KO) cells were plated at 1.0 × 10^4 cells per well in 96-well plates 1 day before transfection. […] The medium was then aspirated and cells were washed four times with PBS at room temperature. Vγ9Vδ2 T cells (1.0 × 10^5 cells per well) were then added and cocultured with MIA PaCa-2 cells, and culture supernatants were collected after 16 h and assayed for TNF levels using a TNF human uncoated ELISA kit (Invitrogen). The assay of CHO-K1 cells (infected with lentivirus of BTN3A1 and CD80) was performed according to the same methods as for the MIA PaCa-2 cells[22],[23].

[2] = system: BTN3A1+CD80+ CHO-K1 cells; test: TNF secretion by Vγ9Vδ2 T cells co-cultured with zoledronate-treated BTN3A1+CD80+ CHO-K1 cells; type: cell-based, Chinese hamster; settings: Fig. 3c, ii
Protocol: as §1

[3] = system: BTN2A−/− MIA PaCa-2 (BTN2A1/BTN2A2 KO) cells; test: IFNγ release from Vγ9Vδ2 T cells in response to zoledronate stimulation of BTN2A−/− MIA PaCa-2 cells expressing BTN2A1 variants; type: cell-based, human; parameters: unit not given here; settings: 6 values

## Cc1ccc(C/C(=C\COP(=O)(O)OP(=O)(O)O)CO)cc1 [HMBPP-08, (E)-4-hydroxy-3-(4-methylbenzyl)but-2-enyl diphosphate]
Vγ9Vδ2 T cells
  γδ T cell activation: do not efficiently activate

## O=P(O)(O)C(O)(Cn1ccnc1)P(=O)(O)O [Zoledronate]
MIA PaCa-2 cells
  binding force, Mean, Fig. 6b: 1524
  binding force, Median, Fig. 6b: 1525
[1]; Fig. 3c, i, zoledronate-treated cells expressing BTN2A1 D455G/E457R
  TNF secretion by Vγ9Vδ2 T cells, Mean: 6.214
[1]; Fig. 3c, i, zoledronate-treated cells expressing BTN2A1 R477A
  TNF secretion by Vγ9Vδ2 T cells, Mean: 8.398
[1]; Fig. 3c, i, zoledronate-treated cells expressing BTN2A1 T510A
  TNF secretion by Vγ9Vδ2 T cells, Mean: 6.658
[1]; Fig. 3c, i, zoledronate-treated cells expressing BTN2A1 T510M
  TNF secretion by Vγ9Vδ2 T cells, Mean: 7.401
[1]; Fig. 3c, i, zoledronate-treated cells expressing BTN2A1 V511A
  TNF secretion by Vγ9Vδ2 T cells, Mean: 7.427
[1]; Fig. 3c, i, zoledronate-treated cells expressing BTN2A1 V511D
  TNF secretion by Vγ9Vδ2 T cells, Mean: 6.982
[1]; Fig. 3c, i, zoledronate-treated cells expressing BTN2A1 V511W
  TNF secretion by Vγ9Vδ2 T cells, Mean: 7.617
[1]; Fig. 3c, i, zoledronate-treated cells expressing BTN2A1 WT
  TNF secretion by Vγ9Vδ2 T cells, Mean: 158.2
[1]; Fig. 3c, i, zoledronate-treated cells expressing BTN2A1 ∆C
  TNF secretion by Vγ9Vδ2 T cells, Mean: 9.364
[1]; Fig. 3c, i, zoledronate-treated cells, NT
  TNF secretion by Vγ9Vδ2 T cells, Mean: 7.859
[1]; Fig. 3d, zoledronate-treated cells expressing BTN2A1 H471G/I472A/Y473A
  TNF secretion by Vγ9Vδ2 T cells, Mean: 9.274
[1]; Fig. 3d, zoledronate-treated cells expressing BTN2A1 R449A/R469A
  TNF secretion by Vγ9Vδ2 T cells, Mean: 16.58
[1]; Fig. 3d, zoledronate-treated cells expressing BTN2A1 WT
  TNF secretion by Vγ9Vδ2 T cells, Mean: 182.7
[1]; Fig. 3d, zoledronate-treated cells expressing BTN2A1 Y464A-T474A
  TNF secretion by Vγ9Vδ2 T cells, Mean: 9.364
[1]; Fig. 3d, zoledronate-treated cells expressing BTN2A1 ∆C
  TNF secretion by Vγ9Vδ2 T cells, Mean: 0.6146
[1]; Fig. 3d, zoledronate-treated cells, NT
  TNF secretion by Vγ9Vδ2 T cells, Mean: 9.612
[2]; zoledronate-treated cells expressing BTN2A1 D455G/E457R, n=6
  TNF secretion by Vγ9Vδ2 T cells, Mean: 11.14
[2]; zoledronate-treated cells expressing BTN2A1 R477A, n=6
  TNF secretion by Vγ9Vδ2 T cells, Mean: 8.53
[2]; zoledronate-treated cells expressing BTN2A1 T510A, n=6
  TNF secretion by Vγ9Vδ2 T cells, Mean: 7.472
[2]; zoledronate-treated cells expressing BTN2A1 T510M, n=6
  TNF secretion by Vγ9Vδ2 T cells, Mean: 7.874
[2]; zoledronate-treated cells expressing BTN2A1 V511A, n=6
  TNF secretion by Vγ9Vδ2 T cells, Mean: 10.17
[2]; zoledronate-treated cells expressing BTN2A1 V511D, n=6
  TNF secretion by Vγ9Vδ2 T cells, Mean: 6.367
[2]; zoledronate-treated cells expressing BTN2A1 V511W, n=6
  TNF secretion by Vγ9Vδ2 T cells, Mean: 8.466
[2]; zoledronate-treated cells expressing BTN2A1 WT, n=5
  TNF secretion by Vγ9Vδ2 T cells, Mean: 465.4
[2]; zoledronate-treated cells expressing BTN2A1 ∆C, n=6
  TNF secretion by Vγ9Vδ2 T cells, Mean: 7.982
[2]; zoledronate-treated cells, NT, n=6
  TNF secretion by Vγ9Vδ2 T cells, Mean: 20.41
[3]; NT cells
  Mean (Extended Data Fig. 7b): 2.056
[3]; cells expressing BTN2A1 E286G
  Mean (Extended Data Fig. 7b): 48.61
[3]; cells expressing BTN2A1 E300G
  Mean (Extended Data Fig. 7b): 78.93
[3]; cells expressing BTN2A1 E307G
  Mean (Extended Data Fig. 7b): 40.34
[3]; cells expressing BTN2A1 E316G
  Mean (Extended Data Fig. 7b): 128.5
[3]; cells expressing BTN2A1 F324G
  Mean (Extended Data Fig. 7b): 95.24
[3]; cells expressing BTN2A1 K276G
  Mean (Extended Data Fig. 7b): 55.14
[3]; cells expressing BTN2A1 K283G
  Mean (Extended Data Fig. 7b): 42.21
[3]; cells expressing BTN2A1 K304G
  Mean (Extended Data Fig. 7b): 117
[3]; cells expressing BTN2A1 K311G
  Mean (Extended Data Fig. 7b): 59.44
[3]; cells expressing BTN2A1 L272G
  Mean (Extended Data Fig. 7b): 81.83
[3]; cells expressing BTN2A1 L279G
  Mean (Extended Data Fig. 7b): 16.84
[3]; cells expressing BTN2A1 L294G
  Mean (Extended Data Fig. 7b): 44.72
[3]; cells expressing BTN2A1 L297G
  Mean (Extended Data Fig. 7b): 44.28
[3]; cells expressing BTN2A1 L314G
  Mean (Extended Data Fig. 7b): 23.31
[3]; cells expressing BTN2A1 L318G
  Mean (Extended Data Fig. 7b): 13.17
[3]; cells expressing BTN2A1 L325C/A327C
  Mean (Extended Data Fig. 7b): 59.39
[3]; cells expressing BTN2A1 L325G
  Mean (Extended Data Fig. 7b): 7.962
[3]; cells expressing BTN2A1 R290A
  Mean (Extended Data Fig. 7b): 84.46
[3]; cells expressing BTN2A1 W320A
  Mean (Extended Data Fig. 7b): 70.37
[3]; cells expressing BTN2A1 WT
  Mean (Extended Data Fig. 7b): 151.4
